The numbers were not newly measured in patent publication US20230310465A1, “NANO LIPID CARRIER SYSTEM FOR IMPROVING PERMEATION OF ACTIVE INGREDIENTS” (LEIUTIS PHARMACEUTICALS LLP, priority 2020, published 2023), which cites them from elsewhere.

The conditions of this data set: from Akynezo, healthy subjects.

`Cc1ccccc1-c1cc(N2CCN(C)CC2)ncc1N(C)C(=O)C(C)(C)c1cc(C(F)(F)F)cc(C(F)(F)F)c1` [Netupitant, 2-[3,5-bis(trifluoromethyl)phenyl]-N,2-dimethyl-N-[4-(2methylphenyl)-6-(4-methylpiperazin-1-yl)pyridin-3-yl]propenamide]: the Tmax result is recorded as “about 5 hrs”.
